# Entries after “also recorded” stand apart in the source; their conditions may differ. Marks after values point to notes of the source that are not given here.
# How the values were obtained:
# TNBS-induced rat colitis = details: cited from earlier work
# [1] = tested on: TNF-α production in U-937 cells; assay: LPS-stimulated TNF-α production in PMA-differentiated U-937 cells; format: cell-based, human; details: for effect on TNF-α production (in words): differentiated U-937 cells, LPS 4 h, 10^−6 to 10^−4 M
# Experimental: The cells are cultured in RPMI 1640 (Life Technologies) supplemented with 10% fetal bovine serum and 2 mM glutamine in a humidified 5% CO2 atmosphere at 37° C. Cell concentration is adjusted to 0.5×10^6 cells ml, and monocytic differentiation is induced by incubation with 20 ng ml^−1 PMA for 24 h. After that, cells are harvested, centrifuged at 200 g for 5 min and plated onto 48-well plates at 210^6 cells ml^−1, pre-incubated for 30 min with the test compounds at concentrations ranging from 10^−6 to 10^−4 M, and stimulated with 0.1 μg ml^−1 LPS. After 4 h, plates are centrifuged at 1,000 g for 10 min and supernatants are collected and stored at −80° C. for the quantification of the TNF-α released in the culture medium by EIA using a commercial kit (R&D, Minneapolis, Minn., USA).
# [2] = tested on: IL-8 production in HT-29 cells; assay: LPS-stimulated IL-8 production in HT-29 cell cultures; format: cell-based, human; details: for effect on IL-8 basal production: no LPS
# Experimental: The human colon adenocarcinoma cell line HT-29, obtained from the Cell Culture Unit of the University of Granada (Granada, Spain) (ECACC reference number: 91072201), is used as a model of intestinal epithelium to test the ability of the different compounds to inhibit the production/release of IL-8. Cells are grown in Dulbecco's modified Eagle's medium supplemented with 10% fetal bovine serum (Boehringer Mannheim, Mannheim, Germany), 2 mM L-glutamine, 50,000 u l^−1 penicillin/streptomycin and 2.5 mg ml^−1 amphotericin B, in a humidified 5% CO2 atmosphere at 37° C. Cells are seeded into 12-well plates and grown to confluence. […] After 20 h, supernatants are collected, centrifuiged to remove debris at 7,000 g for 10 min and stored at −80° C. for the determination of IL-8 levels by enzyme-linked immunosorbent assay (Biosource International, Nivilles, Belgium).
# [3] = tested on: IL-1β production in THP-1 cells; assay: LPS and PMA-stimulated IL-1β production in THP-1 cells; format: cell-based, human; details: for effect on stimulated IL-1β production (in words): 10^−7 to 10^−4 M
# Experimental: The human monocytic cell line THP-1 is obtained from the Cell Culture Unit of the University of Granada (Granada, Spain) (ECACC reference number: 88081201) and used to assay the effects of the different compounds on IL-1 production. These cells are cultured in RPMI 1640 (Life Technologies, Paisley, UK) supplemented with 10% fetal bovine serum (Life Technologies), 2 mM glutamine and 0.05 mM mercaptoethanol in a humidified 5% CO2 atmosphere at 37° C. Cells are seeded onto 24-well plates at a density of 2×10^6 cells ml^−1 and pre-incubated during 30 min with the different test compounds, at concentrations ranging from 10^−7 to 10^−4 M, and then stimulated with 1 μg ml^−1 LPS and 1 μM phorbol 12-myristate 13-acetate (PMA). After 20 h, plates are centrifuged at 1,000 g for 10 min and supematants are collected and stored at −80° C. for the determination of IL-1 levels by EIA using a kit system (Amersham Pharmacia Biotech, Buckinghamshire, UK).
# [4] = tested on: colonic myeloperoxidase (MPO) activity; assay: Reactivated TNBS colitis in rats: colonic MPO activity; format: in vivo, rat
# Experimental: (§1) Colitis is induced by the method originally described by Morris et al. (1989), with minor modifications. Female Wistar rats (180-220 g) obtained from the Laboratory Animal Service of the University of Granada (Granada, Spain) are randomly distributed in several experimental groups. Animals are housed in makrolon cages (3-4 rats per cage) and maintained in an air-conditioned animal room with a 12 h light-dark cycle, and they are provided with free access to tap water and food (Panlab A.04). Animals are fasted overnight and anaesthetized with halothane. Under anesthesia, animals received 10 mg of TNBS dissolved in 0.25 ml of 50% ethanol (v v^−1) by means of a Teflon cannula inserted 8 cm through the anus. During and after TNBS administration rats are kept in a head-down position until they recovered from anesthesia, and then returned to their cage. […] Two additional groups are also included for reference: a non colitic group receiving intracolonically 0.25 ml of phosphate buffer saline (pH=7.4) and another colitic group which received only the first dose of TNBS (control group without relapse); both groups are orally administered with vehicle.
# Animals are sacrificed with an overdose of halothane, and the entire colon is removed. The colonic segments are placed on an ice-cold plate, cleaned of fat and mesentery, and blotted on filter paper. Each specimen is weighed and its length measured under a constant load (2 g). […] The colon is subsequently divided longitudinally in 3 pieces for biochemical determinations. […] MPO activity is measured according to the technique described by Krawisz et al. (1984); the results are expressed as MPO units per gram of wet tissue and one unit of MPO activity is defined as that degrading 1 μmol min^−1 of hydrogen peroxide at 25° C. […] The supernatants are frozen at −80° C. until assay and cytokines are quantified by enzyme-linked immunosorbent assay (Amersham Pharmacia Biotech). […]
# colonic IL-1β levels = assay: Reactivated TNBS colitis in rats: colonic IL-1β levels; format: in vivo, rat; details: FIG. 5
# Experimental: (§2) Colitis is induced by the method originally described by Morris et al. (1989), with minor modifications. Female Wistar rats (180-220 g) obtained from the Laboratory Animal Service of the University of Granada (Granada, Spain) are randomly distributed in several experimental groups. Animals are housed in makrolon cages (3-4 rats per cage) and maintained in an air-conditioned animal room with a 12 h light-dark cycle, and they are provided with free access to tap water and food (Panlab A.04). Animals are fasted overnight and anaesthetized with halothane. Under anesthesia, animals received 10 mg of TNBS dissolved in 0.25 ml of 50% ethanol (v v^−1) by means of a Teflon cannula inserted 8 cm through the anus. […]
# (§3) Animals are sacrificed with an overdose of halothane, and the entire colon is removed. […] Each specimen is weighed and its length measured under a constant load (2 g). […] MPO activity is measured according to the technique described by Krawisz et al. (1984); the results are expressed as MPO units per gram of wet tissue and one unit of MPO activity is defined as that degrading 1 μmol min^−1 of hydrogen peroxide at 25° C. […] The supernatants are frozen at −80° C. until assay and cytokines are quantified by enzyme-linked immunosorbent assay (Amersham Pharmacia Biotech). […]
# [5] = tested on: TNF-α production in mononuclear cells; assay: TNF-α production in mononuclear cells (FIG. 8); format: cell-based; details: 10 uM
# Excerpt: FIG. 8. Effects of UR-12746-S in the production of TNF-α in mononuclear cells.
# colonic TNF-α levels = assay: Reactivated TNBS colitis in rats: colonic TNF-α levels; format: in vivo, rat; details: FIG. 6
# Experimental: as §2, §3
# reactivated TNBS colitis = assay: Reactivated TNBS colitis in rats: macroscopic colonic damage; format: in vivo, rat
# Experimental: as §1
# Animals are sacrificed with an overdose of halothane, and the entire colon is removed. The colonic segments are placed on an ice-cold plate, cleaned of fat and mesentery, and blotted on filter paper. Each specimen is weighed and its length measured under a constant load (2 g). […] The colon is subsequently divided longitudinally in 3 pieces for biochemical determinations. […] MPO activity is measured according to the technique described by Krawisz et al. (1984); the results are expressed as MPO units per gram of wet tissue and one unit of MPO activity is defined as that degrading 1 μmol min^−1 of hydrogen peroxide at 25° C. Samples for the determination of TNF-α and IL-1 synthesis are immediately weighed, minced on an ice-cold plate and suspended in a tube with 10 mM sodium phosphate buffer, pH=7.4, 1:5 w v^−1. The tubes are placed in a shaking water bath at 37° C. for 20 min and centrifuged at 9000 g for 30 s at 4° C. The supernatants are frozen at −80° C. until assay and cytokines are quantified by enzyme-linked immunosorbent assay (Amersham Pharmacia Biotech). All biochemical measurements are completed within one week from the time of sample collection and are performed in duplicate.
# [6] = tested on: HT-29, THP-1 and U-937 cells; details: any assayed concentration, any cell types used
# Experimental: Test compounds are prepared at 600 μM stock solution in PBS and further working dilutions are performed in culture medium. Percentage inhibition of cytokine production is calculated for every drug concentration.
# The test compounds are prepared at 600 μM stock solution in PBS and further working dilutions are performed in culture medium. Percentage inhibition of cytokine production is calculated for every drug concentration.
# [7] = two weeks after the initial colonic challenge
# [8] = 25 mg kg^−1 oral daily, 3 wk (after second TNBS)
# [9] = 25 mg kg^−1 oral daily, 4 wk (after second TNBS)
# [10] = 50 mg kg^−1 oral daily, 3 wk (after second TNBS)
# [11] = 50 mg kg^−1 oral daily, 4 wk (after second TNBS)
compound,measurement,setting,value
"Cc1nc2cnccc2n1CC1CCN(C(=O)C=C(c2ccccc2)c2ccc(/N=N\c3ccc(O)c(C(=O)O)c3)cc2)CC1 [UR-12746 free acid, (Z)-2-hydroxy-5-[[4-[3-[4-[(2-methyl-1H-imidazo[4,5-c]pyridin-1-yl)methyl]-1-piperidinyl]-3-oxo-1-phenyl-1-propenyl]phenyl]azo] benzoic acid]",IL-1β production,"TNBS-induced rat colitis; 50-100 mg/kg, 4 week time span",reduce IL-1β production
same,Platelet Activating Factor (PAF) activity,"TNBS-induced rat colitis; 50-100 mg/kg, 4 week time span",inhibit Platelet Activating Factor (PAF) activity
same,colonic myeloperoxidase (MPO) activity,"TNBS-induced rat colitis; 50-100 mg/kg, 4 week time span",reduce colonic myeloperoxidase (MPO) activity
same,LTB4 production,TNBS-induced rat colitis; only at 100 mg/kg and only after 3 and 4 weeks of administration,reduce LTB4 production
same,colonic damage,TNBS-induced rat colitis; only at the 100 mg/kg dosage,significant reduction in colonic damage
"(Z)-1-[4-(3-aminophenyl)-1-oxo-3-phenyl-2-propenyl]-4-[(2-methyl-lH-imidazo[4,5-c]pyridin-1-yl)methyl] piperidine [UR-12715]",effect on TNF-α production (in words),[1],inhibited; also recorded: concentration-dependent inhibitory effect
same,effect on IL-8 basal production,[2],no significant effect
same,effect on stimulated IL-1β production (in words),[3],inhibited; also recorded: inhibits the stimulated cytokine production in a concentration-dependent way
"Cc1nc2cnccc2n1CC1CCN(C(=O)C=C(c2ccccc2)c2ccc(/N=N\c3ccc(O)c(C(=O)[O-])c3)cc2)CC1.[Na+] [UR-12746-S, (Z)-2-hydroxy-5-[[4-[3-[4-[(2-methyl-1H-imidazo[4,5-c]pyridin-1-yl)methyl]-1-piperidinyl] -3-oxo-1-phenyl-1-propenyl]phenyl]azo] benzoic acid sodium salt]",colonic MPO activity after colitis relapse,"[4]; 25 and 50 mg kg^−1, after second TNBS, FIG. 4",prevent the increased activity
same,colonic MPO activity,"[4]; 25 and 50 mg kg^−1, first two weeks after the initial TNBS, FIG. 4",reduction in colonic MPO activity
same,effect in reducing MPO activity in comparison with sulphasalazine,"[4]; same doses, same experimental conditions",higher effect
same,colonic IL-1β levels after second administration of TNBS,colonic IL-1β levels; after second TNBS,effectively prevents the increase in IL-1β levels
same,colonic IL-1β levels,colonic IL-1β levels; [7],decrease colonic IL-1β levels significantly
same,"potency in inhibiting TNF-α production compared to the individual components, a combination of the components and sulfasalazine","[1]; U-937 cells, FIG. 7",more potent
same,inhibition of TNF-α production compared with UR-12715 or a combination of UR-12715 and 5-ASA,[5],to a greater extent
same,colonic TNF-α levels after second administration of TNBS,"colonic TNF-α levels; 50 mg kg^−1, after second TNBS",significantly reduced
same,colonic TNF-α levels,colonic TNF-α levels; [7],without showing any significant effect
same,"colonic weight/length ratio, mean ± s.e.mean","reactivated TNBS colitis; 25 mg kg^−1 oral daily, 1 wk",146.6 ± 8.1 mg/cm
same,"damage score (0-10), median (range)","reactivated TNBS colitis; 25 mg kg^−1 oral daily, 1 wk",5.5 (4-6)
same,"colonic weight/length ratio, mean ± s.e.mean","reactivated TNBS colitis; 25 mg kg^−1 oral daily, 2 wk",143.6 ± 4.9 mg/cm
same,"damage score (0-10), median (range)","reactivated TNBS colitis; 25 mg kg^−1 oral daily, 2 wk",5 (4-5)
same,"colonic weight/length ratio, mean ± s.e.mean",reactivated TNBS colitis; [8],150.5 ± 4.3 mg/cm
same,"damage score (0-10), median (range)",reactivated TNBS colitis; [8],5 (4-6)
same,"colonic weight/length ratio, mean ± s.e.mean",reactivated TNBS colitis; [9],143.2 mg/cm
same,"damage score (0-10), median (range)",reactivated TNBS colitis; [9],5 (2-6)
same,"colonic weight/length ratio, mean ± s.e.mean","reactivated TNBS colitis; 50 mg kg^−1 oral daily, 1 wk",137.0 ± 8.4 mg/cm
same,"damage score (0-10), median (range)","reactivated TNBS colitis; 50 mg kg^−1 oral daily, 1 wk",4.5 (4-6)
same,"colonic weight/length ratio, mean ± s.e.mean","reactivated TNBS colitis; 50 mg kg^−1 oral daily, 2 wk",120.0 ± 5.9 mg/cm
same,"damage score (0-10), median (range)","reactivated TNBS colitis; 50 mg kg^−1 oral daily, 2 wk",4 (3-5)
same,"colonic weight/length ratio, mean ± s.e.mean",reactivated TNBS colitis; [10],142.3 ± 3.1 mg/cm
same,"damage score (0-10), median (range)",reactivated TNBS colitis; [10],4 (3-5)*
same,"colonic weight/length ratio, mean ± s.e.mean",reactivated TNBS colitis; [11],110.8 mg/cm
same,"damage score (0-10), median (range)",reactivated TNBS colitis; [11],3 (2-4)*
same,"colonic macroscopic damage score and colonic weight/length ratio after reactivation, compared with control colitic animals without relapse",reactivated TNBS colitis; after second TNBS dose,no statistical differences
"Cc1nc2cnccc2n1CC1CCN(C(=O)C=C(c2ccccc2)c2ccc(N=Nc3ccc(O)c(C(=O)O)c3)cc2)CC1 [trans-1-[[1-[3-[4-(4-hydroxy-3-carboxyphenylazo)phenyl]-3-phenylpropenoyl]-4-piperidyl]methyl]-1H-2-methylimidazole [4,5-c] pyridine]",viability (trypan blue exclusion),[6],higher than 95%
"Nc1ccc(O)c(C(=O)O)c1 [5-ASA, 5-aminosalicylic acid]",effect on TNF-α production (in words),[1],devoid of any significant effect; also recorded: inactive
same,inhibition at 1 µM,"[2]; Homo sapiens, LPS, achieved at 10^−6 M, not higher up to 10^−4 M, read-out: maximum inhibitory effect on LPS-stimulated IL-8 production",30 to 40%
same,effect on IL-8 basal production,[2],no significant effect
same,effect on stimulated IL-1β production (in words),[3],only a weak effect; also recorded: weak inhibitory activity
same,inhibition of stimulated IL-1β production,[3]; the different concentrations assayed,10-20%
